This passage reports UBC10 results from patent publication US20080039629A1, “Benzothniazole compositions and their use as ubiquition ligation inhibitors” (RIGEL PHARMACEUTICALS, INC., priority 2003, published 2008).

For the assay, the target named is T1, E1 and His-E2 Ubch10 (Homo sapiens, UniProt P22314).
T1 construct: host or cells: E. coli (His-Ubch10); Sf9 insect cells (E1)
T1 sequence (P22314 1-1058): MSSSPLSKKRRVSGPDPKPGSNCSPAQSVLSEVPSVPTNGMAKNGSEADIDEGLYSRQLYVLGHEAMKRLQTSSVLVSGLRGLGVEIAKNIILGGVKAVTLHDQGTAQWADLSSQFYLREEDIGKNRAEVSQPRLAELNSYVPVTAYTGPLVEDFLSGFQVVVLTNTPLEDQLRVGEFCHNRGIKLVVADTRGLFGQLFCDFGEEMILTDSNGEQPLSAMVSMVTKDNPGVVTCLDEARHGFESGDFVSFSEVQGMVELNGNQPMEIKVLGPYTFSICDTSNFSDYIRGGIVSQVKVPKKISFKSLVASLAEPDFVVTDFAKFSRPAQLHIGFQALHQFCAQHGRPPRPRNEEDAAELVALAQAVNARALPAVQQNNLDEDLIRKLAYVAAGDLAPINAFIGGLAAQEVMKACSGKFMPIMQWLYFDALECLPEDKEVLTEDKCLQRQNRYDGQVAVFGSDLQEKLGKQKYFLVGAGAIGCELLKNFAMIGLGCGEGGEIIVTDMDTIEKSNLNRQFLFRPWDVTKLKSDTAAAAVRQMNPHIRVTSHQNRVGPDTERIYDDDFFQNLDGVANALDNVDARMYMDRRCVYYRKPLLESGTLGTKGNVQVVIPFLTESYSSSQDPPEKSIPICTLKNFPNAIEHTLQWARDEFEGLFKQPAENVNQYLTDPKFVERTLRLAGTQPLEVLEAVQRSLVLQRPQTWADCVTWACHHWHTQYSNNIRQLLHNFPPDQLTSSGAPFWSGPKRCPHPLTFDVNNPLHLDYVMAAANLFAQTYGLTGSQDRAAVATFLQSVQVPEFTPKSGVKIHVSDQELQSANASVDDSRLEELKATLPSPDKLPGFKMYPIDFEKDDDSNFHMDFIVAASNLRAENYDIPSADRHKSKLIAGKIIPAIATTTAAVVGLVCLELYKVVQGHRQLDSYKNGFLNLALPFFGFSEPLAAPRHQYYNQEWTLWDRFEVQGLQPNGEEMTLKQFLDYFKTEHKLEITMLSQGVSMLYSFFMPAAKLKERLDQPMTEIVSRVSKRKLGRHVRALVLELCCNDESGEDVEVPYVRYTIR
The assay can be described thus: E1 to E2 transfer assay, His-E2 Ubch10, 1.0 μM ATP (low ATP). In kind it is biochemical. The note with it: Table 5, ATP inhibition properties; inhibition measured using IC50 values. The text has this:
Biological assays for determining the transfer of ubiquitin from the E1 activating agent to the E2 conjugating agent are described in U.S. patent application Ser. Nos. 09/542,497 and 09/826,312 as well as in the PCT Application WO 01/75145, all of which are incorporated by reference in their entirety. The following assay example illustrates one way by which the ubiquitin ligase inhibitory activity of the compounds of the invention can be assayed. This assay example is not meant to limit in any way the use of the compounds of the invention as ubiquitin ligase inhibitors.
The attachment of a ubiquitin moiety to the E2 conjugating agent was assayed using Flag-ubiquitin that was purified from E. coli, E2 Ubch10 that was purified as a His-Ubch10 from E. coli, and E1 that was purified from Sf9 insect cells (Affiniti Research Products, Exeter, U.K.). The wells of a Nickel-substrate 96-well plate (Pierce Chemical) were blocked with 100 μl of 1% casein/phosphate buffered saline (PBS) for 1 hour at room temperature. The blocked Nickel-substrate plate was then washed three times with 200 μl of PBST (0.1% Tween-20 in PBS). Subsequently, Flag-ubiquitin reaction solution was added to each well so that the final concentration was 62.5 mM Tris pH 7.5, […], 0.75 mM DTT, 1.0 μM ATP (low ATP), and 100 ng Flag-ubiquitin. The final reaction solution volume was fixed to 80 μl with Millipore-filtered water. To this was added the following: a ubiquitin agent inhibitor in 10 μl of DMSO, 10 μl of E1 and His-E2 Ubch10 in 20 mM Tris buffer, pH 7.5, and 5% glycerol so that there was 10 ng/well of E1 and 20 ng/well of His-E2 Ubch10. The reaction was then allowed to proceed at room temperature for 1 hour.
After 1 hour, the wells were washed three times with 200 μl of PBST and the amount of E2-ubiquitin complex was measured. For measuring the amount of the E2-ubiquitin complex, 100 μl of Mouse anti-flag diluted 1:10,000 (Sigma Aldrich Fluka Chemicals, St. Louis, Mo.) and anti-mouse HRP diluted 1:15,000 (Jackson Immunoresearch labs, West Grove, Pa.) in PBST were added to each well and allowed to incubate at room temperature for another hour. The wells were then washed three times with 200 μl of PBST and 100 μl of luminol substrate (⅕ dilution) was added. The luminescence of each well was then measured using a […] to calculate the amount of E2-ubiquitin complex. This procedure was repeated using His-E2 Ubch5C instead of His-E2 Ubch10.
The table below illustrates the inhibitory properties of the pharmaceutical compostions of the invention comprising the compounds listed in the table using the assays described above. Inhibition was measured using IC50 values.
Regarding `COc1cccc(C(=O)Nc2nc3ccc(OC)cc3s2)c1` [Compound 60, 3-methoxy-N-(6-methoxybenzo[d]thiazol-2-yl)benzamide], the UBC10 entry was “++ (++ indicates inhibition at 50 μM or or less)”.
Then `COc1ccc2nc(NC(=O)c3ccccc3OC)sc2c1` [Compound 61, 2-methoxy-N-(6-methoxybenzo[d]thiazol-2-yl)benzamide], with “−− (−− indicates marginal or no inhibition detected with this assay)”; and `Cc1ccc(C(=O)Nc2nc3ccc(Cl)cc3s2)cc1` [Compound 70, N-(6-chlorobenzo[d]thiazol-2-yl)-4-methylbenzamide], with “−− (−− indicates marginal or no inhibition detected with this assay)”.
Under `Cc1ccc(C(=O)Nc2nc3c(C)cccc3s2)cc1` [Compound 71, 4-methyl-N-(4-methylbenzo[d]thiazol-2-yl)benzamide] stands “−− (−− indicates marginal or no inhibition detected with this assay)”; under `CC(=O)Nc1ccc2nc(NC(=O)c3ccc(C)cc3)sc2c1` [Compound 72, N-(6-acetamidobenzo[d]thiazol-2-yl)-4-methylbenzamide], “−− (−− indicates marginal or no inhibition detected with this assay)”.
Under `Cc1ccc(C(=O)Nc2nc3ccc(S(N)(=O)=O)cc3s2)cc1` [Compound 73, N-[6-(aminosulfonyl)-1,3-benzothiazol-2-yl]-4-methylbenzamide] stands “−− (−− indicates marginal or no inhibition detected with this assay)”; under `COC(=O)c1ccc(C(=O)Nc2nc3ccc(N)cc3s2)cc1` [Compound 74, methyl 4-((6-aminobenzo[d]thiazol-2-yl)carbamoyl)benzoate], “−− (−− indicates marginal or no inhibition detected with this assay)”.
With `Cc1ccc(C(=O)Nc2nc3ccc(OC(F)(F)F)cc3s2)cc1` [Compound 75, 4-methyl-N-(6-(trifluoromethoxy)benzo[d]thiazol-2-yl)benzamide], the UBC10 entry was “−− (−− indicates marginal or no inhibition detected with this assay)”.
As to `Cc1ccc(C(=O)Nc2nc3c(C)cccc3s2)cc1C` [Compound 76, 3,4-dimethyl-N-(4-methylbenzo[d]thiazol-2-yl)benzamide], the UBC10 entry is recorded as “−− (−− indicates marginal or no inhibition detected with this assay)”.
Under `CCc1ccc(C(=O)Nc2nc3ccc(OC)cc3s2)cc1` [Compound 77, 4-ethyl-N-(6-methyoxybenzo[d]thiazol-2-yl)benzamide] stands “++ (++ indicates inhibition at 50 μM or or less)”.
As to `CCc1ccc(C(=O)Nc2nc3ccc(C)cc3s2)cc1` [Compound 78, 4-ethyl-N-(6-methylbenzo[d]thiazol-2-yl)benzamide], the UBC10 result is “−− (−− indicates marginal or no inhibition detected with this assay)”.
Under `Cc1ccc(C(=O)Nc2nc3ccc([N+](=O)[O-])cc3s2)cc1C` [Compound 79, 3,4-dimethyl-N-(6-nitrobenzo[d]thiazol-2-yl)benzamide] stands “++ (++ indicates inhibition at 50 μM or or less)”.
Then `Cc1ccc2nc(NC(=O)c3ccc(C)c(C)c3)sc2c1` [Compound 80, 3,4-dimethyl-N-(6-methylbenzo[d]thiazol-2-yl)benzamide], with “−− (−− indicates marginal or no inhibition detected with this assay)”; and `CCCc1ccc(C(=O)Nc2nc3ccc(OC)cc3s2)cc1` [Compound 81, N-(6-methoxybenzo[d]thiazol-2-yl)-4-propylbenzamide], with “++ (++ indicates inhibition at 50 μM or or less)”; and `CCCCc1ccc(C(=O)Nc2nc3ccc(OC)cc3s2)cc1` [Compound 82, 4-butyl-N-(6-methoxybenzo[d]thiazol-2-yl)benzamide], with “++ (++ indicates inhibition at 50 μM or or less)”.
Under `CCCCCCc1ccc(C(=O)Nc2nc3ccc(OC)cc3s2)cc1` [Compound 83, 4-hexyl-N-(6-methoxybenzo[d]thiazol-2-yl)benzamide] stands “−− (−− indicates marginal or no inhibition detected with this assay)”.
